Source: patent publication US7217730B2, “Method for the use of pyranoindole derivatives to treat infection with Hepatitis C virus” (Wyeth, priority 2002, dated 2007)
pIC50: −log10 of the molar value.

Columns and labels:
[1] = target: T1, NS5B from the BK strain (genotype 1b) (Hepatitis C virus genotype 1b, UniProt P26663); experiment: Hepatitis C polymerase inhibition, NS5B BK strain, 33P-GTP filter assay; format: biochemical; conditions: Table 1B; NS5B BK strain; read-out: BK IC50
T1 construct: NS5B from the BK strain (genotype 1b) is expressed in E. coli as a protein in which the 21 C-terminal amino acids are replaced; made in house; host or cells: E. coli
T1 sequence (P26663 2420-2989): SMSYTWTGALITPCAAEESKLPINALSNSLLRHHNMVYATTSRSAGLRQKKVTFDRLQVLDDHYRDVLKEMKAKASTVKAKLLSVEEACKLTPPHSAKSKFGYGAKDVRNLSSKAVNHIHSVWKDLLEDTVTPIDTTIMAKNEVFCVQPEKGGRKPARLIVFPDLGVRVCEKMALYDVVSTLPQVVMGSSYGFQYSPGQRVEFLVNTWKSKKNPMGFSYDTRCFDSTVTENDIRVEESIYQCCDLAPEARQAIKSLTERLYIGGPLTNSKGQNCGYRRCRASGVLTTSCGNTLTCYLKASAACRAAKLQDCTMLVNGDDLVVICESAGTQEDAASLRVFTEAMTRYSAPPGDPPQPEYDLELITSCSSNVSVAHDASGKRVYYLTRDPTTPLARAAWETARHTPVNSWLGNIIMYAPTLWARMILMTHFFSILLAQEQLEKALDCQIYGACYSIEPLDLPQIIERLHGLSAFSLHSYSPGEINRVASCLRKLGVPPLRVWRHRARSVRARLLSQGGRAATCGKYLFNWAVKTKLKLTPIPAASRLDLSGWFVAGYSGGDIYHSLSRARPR
In short: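 Radiolabelled RNA synthesis was measured by filter capture and scintillation counting after EDTA stop. His-tagged, C-terminally truncated (Δ21) genotype 1b BK NS5B from E. coli, pre-exposed to compound for 15 min, copied a self-primed RNA template (~3 nM) with α-[33P]-GTP for 2 h at room temperature.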

[2] = target: BB7 (RNA-dependent RNA polymerase hepatitis C virus protein sequence derived from HCV replicon) (Hepatitis C virus genotype 1b, UniProt Q9WMX2); experiment: Hepatitis C polymerase inhibition, BB7 sequence; format: biochemical; conditions: Table 1B
Chain of BB7 (RNA-dependent RNA polymerase hepatitis C virus protein sequence derived from HCV replicon) (Q9WMX2 2420-3010): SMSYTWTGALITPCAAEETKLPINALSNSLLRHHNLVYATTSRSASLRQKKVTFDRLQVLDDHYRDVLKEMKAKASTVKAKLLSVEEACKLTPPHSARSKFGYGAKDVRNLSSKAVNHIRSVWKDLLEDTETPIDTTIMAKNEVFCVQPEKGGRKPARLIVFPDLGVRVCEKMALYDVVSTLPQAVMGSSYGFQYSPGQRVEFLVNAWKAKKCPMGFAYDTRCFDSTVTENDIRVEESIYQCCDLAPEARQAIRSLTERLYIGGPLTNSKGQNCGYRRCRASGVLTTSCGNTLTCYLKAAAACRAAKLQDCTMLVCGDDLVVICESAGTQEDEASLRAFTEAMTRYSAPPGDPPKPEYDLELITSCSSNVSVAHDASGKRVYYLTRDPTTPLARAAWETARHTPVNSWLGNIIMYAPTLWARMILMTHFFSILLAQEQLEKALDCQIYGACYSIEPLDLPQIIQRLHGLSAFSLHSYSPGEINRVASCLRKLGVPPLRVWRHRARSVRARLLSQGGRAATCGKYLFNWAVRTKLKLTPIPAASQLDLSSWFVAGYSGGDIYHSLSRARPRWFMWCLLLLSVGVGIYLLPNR

Compound	pIC50 [1]	pIC50 [2]
Cc1ccc(C(F)(F)F)c2c3c([nH]c12)C(CC(=O)O)(C1CC1)OCC3 (centres unmarked) [Example 274, (1-cyclopropyl-8-methyl-5-trifluoromethyl-1,3,4,9-tetrahydropyrano[3,4-b]indol-1-yl)acetic acid]	5.03	< 4.59
CC[C@H](C)C1(CC(=O)O)OCCc2c1[nH]c1c(C)ccc(Cl)c21 (mixture of isomers) [Example 261, (1R*,10S)-[5-chloro-8-methyl-1-(1-methylpropyl)-1,3,4,9-tetrahydropyrano[3,4-b]indol-1-yl]acetic acid]	6.40	6.05
CC[C@H](C)[C@@]1(CC(=O)O)OCCc2c1[nH]c1c(C)ccc(C#N)c21 (racemic) [Example 289, (1R*,10S*)-[5-cyano-8-methyl-1-(1-methylpropyl)-1,3,4,9-tetrahydropyrano[3,4-b]indol-1-yl]acetic acid]	6.92	6.64
C=CCCC1(CC(=O)O)OCCc2c1[nH]c1c(F)ccc(C#N)c21 (centres unmarked) [Example 302, [1-(3-butenyl)-5-cyano-8-fluoro-1,3,4,9-tetrahydropyrano[3,4-b]indol-1-yl]acetic acid]	5.40	4.74
N#Cc1ccc(F)c2[nH]c3c(c12)CCOC3(C(=O)O)C1CCCC1 (centres unmarked) [Example 350, (5-cyano-1-cyclopentyl-8-fluoro-1,3,4,9-tetrahydropyrano[3,4-b]indol-1-yl)carboxylic acid]	< 4.52	< 4.52
CSCC1(CC(=O)O)OCCc2c1[nH]c1c(C)ccc(C#N)c21 (centres unmarked) [Example 282, (5-cyano-1-methylthiomethyl-8-methyl-1,3,4,9-tetrahydropyrano[3,4-b]indol-1-yl)acetic acid]	4.89	4.66
O=C(O)CC1(C2CCCC2)OCCc2c1[nH]c1ccc(Cl)c(Cl)c21 (centres unmarked) [Example 236, (5,6-dichloro-1-cyclopentyl-1,3,4,9-tetrahydropyrano[3,4-b]indol-1-yl)acetic acid]	5.00	5.02
CC[C@H](C)C1(CC(=O)O)OCCc2c1[nH]c1c(C)ccc([N+](=O)[O-])c21 (mixture of isomers) [Example 300, (1R*,10S)-[8-methyl-1-(1-methylpropyl)-5-nitro-1,3,4,9-tetrahydropyrano[3,4-b]indol-1-yl]acetic acid]	6.85	6.60
CC[C@H](C)C1(CC(=O)O)OCCc2c1[nH]c1c(C#N)ccc(C(F)(F)F)c21 (mixture of isomers) [Example 279, (1R*,10S)-[8-cyano-1-(1-methylpropyl)-5-trifluoromethyl-1,3,4,9-tetrahydropyrano[3,4-b]indol-1-yl]acetic acid]	5.70	5.62
CCCC1(C(=O)O)OCCc2c1[nH]c1c(C)ccc(C(F)(F)F)c21 (centres unmarked) [Example 333, (5-trifluoromethyl-8-methyl-1-propyl-1,3,4,9-tetrahydropyrano[3,4-b]indol-1-yl)carboxylic acid]	5.89	5.12
CCCC1(CC(=O)O)OCCc2c1[nH]c1c(C)c(OC(C)C)cc(C#N)c21 (centres unmarked) [Example 364, (5-cyano-7-isopropoxy-8-methyl-1-propyl-1,3,4,9-tetrahydro-pyrano[3,4-b]indol-1-yl)-acetic acid]	6.32	6.66
CCCC1(CC(=O)O)OCCc2c1[nH]c1c(F)ccc(C(F)(F)F)c21 (centres unmarked) [Example 268, (8-fluoro-1-propyl-5-trifluoromethyl-1,3,4,9-tetrahydropyrano[3,4-b]indol-1-yl)acetic acid]	5.34	5.21
CC[C@@H](C)[C@@]1(C(=O)O)OCCc2c1[nH]c1c(C)ccc(C#N)c21 (racemic) [Example 336, (1R*,10R*)-[5-cyano-8-methyl-1-(1-methylpropyl)-1,3,4,9-tetrahydropyrano[3,4-b]indol-1-yl]carboxylic acid]	5.33	5.06
CCCC1(CC(=O)O)OCCc2c1[nH]c1c(Cl)ccc(C#N)c21 (centres unmarked) [Example 321, (8-chloro-5-cyano-1-propyl-1,3,4,9-tetrahydropyrano[3,4-b]indol-1-yl)acetic acid]	6.52	6.22
CC[C@H](C)[C@]1(CC(=O)O)OCCc2c1[nH]c1c(C)ccc(C#N)c21 [Example 293, (1S,10S)-[5-cyano-8-methyl-1-(1-methylpropyl)-1,3,4,9-tetrahydropyrano[3,4-b]indol-1-yl]acetic acid]	< 4.52	< 4.52
Cc1ccc(C#N)c2c3c([nH]c12)C(C(=O)O)(C1CCC1)OCC3 (centres unmarked) [Example 338, (5-cyano-1-cyclobutyl-8-methyl-1,3,4,9-tetrahydropyrano[3,4-b]indol-1-yl)carboxylic acid]	5.48	5.41
CCCNC(=O)c1cc(C#N)c2c3c([nH]c2c1C)C(CCC)(CC(=O)O)OCC3 (centres unmarked) [Example 354, (5-cyano-8-methyl-1-propyl-7-propylcarbamoyl-1,3,4,9-tetrahydro-pyrano[3,4-b]indol-1-yl)-acetic acid]	5.52	5.70

Compound	pIC50 [1]	pIC50 [2]
CCCC1(C(=O)O)OCCc2c1[nH]c1c(C)ccc(C#N)c21 (centres unmarked) [Example 334, (5-cyano-8-methyl-1-propyl-1,3,4,9-tetrahydropyrano[3,4-b]indol-1-yl)carboxylic acid]	5.52	5.30
CCOCC1(CC(=O)O)OCCc2c1[nH]c1c(Cl)ccc(Cl)c21 (centres unmarked) [Example 248, (5,8-dichloro-1-ethoxymethyl-1,3,4,9-tetrahydropyrano[3,4-b]indol-1-yl)acetic acid]	< 4.52	< 4.52
Cc1ccc(C#N)c2c3c([nH]c12)C(CC(=O)O)(C1CCCC1)OCC3 (centres unmarked) [Example 287, (5-cyano-1-cyclopentyl-8-methyl-1,3,4,9-tetrahydropyrano[3,4-b]indol-1-yl)acetic acid]	5.29	5.19
CCCC1(C(=O)O)OCCc2c1[nH]c1c(Cl)ccc(C#N)c21 (centres unmarked) [Example 341, (8-chloro-5-cyano-1-propyl-1,3,4,9-tetrahydropyrano[3,4-b]indol-1-yl)carboxylic acid]	5.77	5.44
CCCC1(CC(=O)O)OCCc2c1[nH]c1c(CC)ccc(C#N)c21 (centres unmarked) [Example 295, (5-cyano-8-ethyl-1-propyl-1,3,4,9-tetrahydropyrano[3,4-b]indol-1-yl)acetic acid]	5.44	5.51
COCCC1(CC(=O)O)OCCc2c1[nH]c1c(Cl)ccc(Cl)c21 (centres unmarked) [Example 247, [5,8-dichloro-1-(2-methoxyethyl)-1,3,4,9-tetrahydropyrano[3,4-b]indol-1-yl]acetic acid]	< 4.62	4.74
N#Cc1ccc(F)c2[nH]c3c(c12)CCOC3(CC(=O)O)C1CCCC1 (centres unmarked) [Example 308, (5-cyano-1-cyclopentyl-8-fluoro-1,3,4,9-tetrahydropyrano[3,4-b]indol-1-yl)acetic acid]	< 4.52	< 4.52
CC[C@H](C)[C@@]1(CC(=O)O)OCCc2c1[nH]c1c(Cl)ccc(C#N)c21 [Example 325, (1R,10S)-[8-Chloro-5-cyano-1-(1-methylpropyl)-1,3,4,9-tetrahydropyrano[3,4-b]indol-1yl]acetic acid]	7.10	6.72
CCCC1(CC(=O)O)OCCc2c1[nH]c1cc(Cl)c(Cl)cc21 (centres unmarked) [Example 240, (6,7-dichloro-1-propyl-1,3,4,9-tetrahydropyrano[3,4-b]indol-1-yl)acetic acid]	5.05	4.74
O=C(O)CC1(CCC(F)(F)F)OCCc2c1[nH]c1ccc(Cl)c(Cl)c21 (centres unmarked) [Example 239, [5,6-dichloro-1-(3,3,3-trifluoropropyl)-1,3,4,9-tetrahydropyrano[3,4-b]indol-1-yl]acetic acid]	5.34	5.27
N#Cc1ccc(F)c2[nH]c3c(c12)CCOC3(CC(=O)O)CC1CCCC1 (centres unmarked) [Example 310, (5-cyano-1-cyclopentylmethyl-8-fluoro-1,3,4,9-tetrahydropyrano[3,4-b]indol-1-yl)acetic acid]	< 4.60	< 4.60
O=C(O)CC1(C2CCCCC2)OCCc2c1[nH]c1c(Cl)ccc(Cl)c21 (centres unmarked) [Example 255, (5,8-dichloro-1-cyclohexyl-1,3,4,9-tetrahydropyrano[3,4-b]indol-1-yl)acetic acid]	< 4.52	4.82
CCCC1(CC(=O)O)OCCc2c1[nH]c1c(C)ccc([N+](=O)[O-])c21 (centres unmarked) [Example 298, (8-methyl-5-nitro-1-propyl-1,3,4,9-tetrahydropyrano[3,4-b]indol-1-yl)acetic acid]	6.52	6.30
CCCOc1cc(C#N)c2c3c([nH]c2c1C)C(CCC)(CC(=O)O)OCC3 (centres unmarked) [Example 359, (5-cyano-8-methyl-7-propoxy-1-propyl-1,3,4,9-tetrahydro-pyrano[3,4-b]indol-1-yl)-acetic acid]	7.15	7.15
O=C(O)CC1(CCC(F)(F)F)OCCc2c1[nH]c1c(Cl)ccc(C(F)(F)F)c21 (centres unmarked) [Example 263, [8-chloro-5-trifluoromethyl-1-(3,3,3-trifluoropropyl)-1,3,4,9-tetrahydropyrano[3,4-b]indol-1-yl]acetic acid]	5.89	5.49
COCC1(CC(=O)O)OCCc2c1[nH]c1c(Cl)ccc(Cl)c21 (centres unmarked) [Example 246, (5,8-dichloro-1-methoxymethyl-1,3,4,9-tetrahydropyrano[3,4-b]indol-1-yl)acetic acid]	< 4.52	< 4.52
[5-cyano-1-(1-ethylethyl)-8-methyl-1,3,4,9-tetrahydropyrano[3,4-b]indol-1-yl]acetic acid [Example 294]	< 4.52	< 4.52
